Test results published in BindingDB's records for doi:10.1016/j.bmcl.2018.05.009 (Vanderbilt University Medical Center, 2018).
pEC50: −log10 of the molar value.

How the values were obtained:
[1] = molecular target: T1, Muscarinic acetylcholine receptor M1 (Homo sapiens, UniProt P11229); test: Positive allosteric modulation of human muscarinic acetylcholine M1 receptor expressed in CHO cells assessed as potentiation of acetylcholine-induced calcium mobilization
T1 sequence (P11229 whole entry): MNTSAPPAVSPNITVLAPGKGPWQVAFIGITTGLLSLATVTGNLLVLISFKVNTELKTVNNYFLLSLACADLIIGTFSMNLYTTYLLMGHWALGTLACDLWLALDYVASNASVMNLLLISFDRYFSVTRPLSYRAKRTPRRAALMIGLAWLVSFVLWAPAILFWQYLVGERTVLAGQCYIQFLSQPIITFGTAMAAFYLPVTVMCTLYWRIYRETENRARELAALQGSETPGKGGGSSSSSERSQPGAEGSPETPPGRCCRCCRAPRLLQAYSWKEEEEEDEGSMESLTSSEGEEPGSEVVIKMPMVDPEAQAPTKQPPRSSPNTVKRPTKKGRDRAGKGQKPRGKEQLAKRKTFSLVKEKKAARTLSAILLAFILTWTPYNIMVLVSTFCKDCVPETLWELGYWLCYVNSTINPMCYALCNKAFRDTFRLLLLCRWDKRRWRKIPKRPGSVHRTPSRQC

[2] = molecular target: T1, Muscarinic acetylcholine receptor M1; test: ChEBML_1712853
Description: Positive allosteric modulation of human muscarinic acetylcholine M1 receptor expressed in CHO-NFAT cells assessed as potentiation of acetylcholine-induced calcium mobilization after 4 hrs by CCF4-AM dye-based assay

Cn1cc(-c2ccc(CN3CC(C(=O)N[C@H]4CCCC[C@@H]4O)Oc4ccccc43)cn2)cn1 (some centres not stated)
pEC50 [1]: 6.75

O=C(N[C@H]1CCCC[C@@H]1O)C1CN(Cc2ccc(-n3cccn3)cc2)c2ccccc2O1 (some centres not stated)
pEC50 [2]: 6.10
